The conditions of data set [1]: mouse, in vivo, iv.
The next data set relates to PPC-1 cells. The experiment in a line: Subcutaneous PPC-1 tumor implants in NOD/SCID mice. The class given is in vivo. As to the method: To study the in vivo antineoplastic potency of JS-K, NOD/SCID mice were injected in the flanks subcutaneously with HL-60 or PPC-1 cells (2.5×10^6 cells per flank). When subcutaneous tumors were palpable, treatment with JS-K or an equal volume of vehicle (20% dimethyl sulfoxide in PBS) was started using the indicated doses and route. Tumor size was measured daily or every other day using a Vernier caliper. Tumor volume was calculated using the formula: width×length×[(width+length)/2]×0.5236. Fifteen to 20 days after tumor cell implantation, animals were sacrificed by CO2 inhalation and tumors were collected for histochemical analysis.
Histological Analysis of Tumors. After sacrifice, subcutaneous tumors were dissected out, fixed in 10% formaldehyde and imbedded in paraffin. Four-um sections were cut and stained with Hematoxylin and Eosin.
To determine if JS-K is cytotoxic to solid tumors, the effect of JS-K on the in vitro and in vivo growth of the prostate cancer cell line PPC-1 was studied. Similar to studies in HL-60 cells, indications are that JS-K appears to be a potent growth inhibitor for prostate cancer cells in vitro and in vivo. For the in vitro experiments, JS-K was added to PPC-1 cells at 1, 2, 3, 4, and 5 μM concentrations. […] For the in vivo experiments, NOD/SCID mice were inoculated subcutaneously with […] PPC-1 cells, as described above. When the subcutaneous tumors were measurable, JS-K was administered intravenously at a dose of 4 μmol/kg or an equal volume of vehicle 3 times per week.
In order to determine whether JS-K inhibits the in vivo growth of solid tumor cells, NOD/SCID mice were implanted with 2.5×10^6 PPC-1 (prostate carcinoma) cells and treated with 4 μmol/kg JS-K or an equal volume of vehicle intravenously 3 times a week. Similar to the observation with HL-60 cells, JS-K treatment appeared to inhibit the growth of PPC-1 cells in vivo. Nineteen days after start of therapy, subcutaneous tumor implant volumes were 0.368±0.082 and 0.107±0.053 cm^3 (P=0.0073) in vehicle and JS-K-treated animals, respectively. […]

The next data set relates to HL-60 cells. The experiment in a line: Apoptosis in HL-60 cells by DNA laddering. The class given is cell-based, human. The settings on record: 1 μM, twenty-four hours post-addition. How it is done:
Cell Growth, Differentiation and Apoptosis Assays. The number of viable cells was determined using the MTT assay according to the manufacturer's protocol (Promega, Madison, Wis.) or using a Coulter counter. Briefly, a MTT assay is an analytical technique that uses the dye dimethylthiazolyl-diphenyltetrazolium (MTT) which turns from yellow to brownish-purple as it is reduced in the mitochondria of living cells. The assay is useful in calorimetric quantitation of cell viability and proliferation. In contrast, cell differentiation was evaluated using Wright and Non-Specific Esterase (NSE) staining of cells collected on microscope slides by cytospin as previously described (Magrinat, G. et al. (1992) Blood 80: 1880-1884). Apoptosis was assayed by flow cytometry and by determining DNA fragmentation using agarose gel electrophoresis as previously described (Shami, P. J. et al. (1998) Leukemia 12: 1461-1466). For the flow cytometry assay, we used the propidium iodide staining method of Nicoletti et al. (Nicoletti, I. et al. (1991) J. Immunol. Methods 139: 271-279).
Twenty-four hours post-addition, apoptosis induction was assayed by DNA laddering.

The target of a further data set is T1, hGSTA1-1 (Homo sapiens, UniProt P08263).
T1 sequence (P08263 1-222): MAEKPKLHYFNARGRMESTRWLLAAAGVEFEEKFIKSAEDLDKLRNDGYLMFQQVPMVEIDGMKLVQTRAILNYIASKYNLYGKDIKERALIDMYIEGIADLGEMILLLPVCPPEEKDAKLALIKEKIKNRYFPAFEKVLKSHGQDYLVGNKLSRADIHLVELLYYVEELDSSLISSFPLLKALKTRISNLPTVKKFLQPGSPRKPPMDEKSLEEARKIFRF
In words: GST-catalysed GSH conjugation of JS-K and NO release. It counts as biochemical. As to the method:
(§1) Determination of Specific Activity of Human GSTs Toward JS-K. Purified preparations of recombinant hGSTA1-1, hGSTM1-1 and hGSTP1-1 were obtained from Panvera (Madison, Wis.). The activity of human GST toward CDNB was determined, as described by Habig et al. (Habig, W. H. et al. (1974) J. Biol. Chem. 249: 7130-7139), prior to activity measurements with JS-K to ensure that the enzyme preparations were catalytically active. For activity measurement toward JS-K, the reaction mixture in a final volume of 1 ml contained 100 mM potassium phosphate buffer (pH 6.5), 1 mM GSH, 0.045 mM JS-K, and an appropriate amount of human GST isoenzyme protein. The reaction was started by the addition of JS-K, and the rate of reaction was monitored by measuring decrease in absorbance of JS-K at 298 nm due to its utilization during reaction with GSH. The specific activity toward JS-K was calculated using an extinction coefficient of 18 mM^−1 cm^−1 at 298 nm.
(§2) Measurement of NO Release. Chemiluminescence detection and quantification of NO evolving from the reactions of JS-K were conducted using an NO-specific Thermal Energy Analyzer (Model 502A, Thermedics, Analytical Instrument Division, Waltham, Mass.) essentially as previously described (Keefer, L. K. et al. (1996) Methods Enzymol. 268: 281-293). Briefly, pH 7.4 phosphate buffer containing 1 mM GSH was sparged with inert gas until a steady detector response was established. Where indicated, GSTs were added to a final concentration of 1.67 ug of enzyme/ml. The NO release profile was followed at 37° C. for 45 min after injecting JS-K at a final concentration of 133 nM to start the reaction. The resulting curve was integrated to quantify the amount of NO released/mole of compound.

The next data set has as its target T2, hGSTM1-1 (Homo sapiens, UniProt P09488).
T2 construct: purchased Panvera (Madison, Wis.)
T2 sequence (P09488 2-218): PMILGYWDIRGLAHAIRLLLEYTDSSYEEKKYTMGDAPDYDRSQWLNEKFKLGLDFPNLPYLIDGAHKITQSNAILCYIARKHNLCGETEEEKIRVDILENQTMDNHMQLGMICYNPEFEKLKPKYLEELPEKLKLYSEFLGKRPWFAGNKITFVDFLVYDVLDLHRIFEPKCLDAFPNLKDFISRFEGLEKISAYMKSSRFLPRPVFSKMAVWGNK
The description is as above. The class given is biochemical. As to the method:
as §1, §2

The target in a further data set is T3, hGSTP1-1 (Homo sapiens, UniProt P09211).
T3 construct: purchased Panvera (Madison, Wis.)
T3 sequence (P09211 2-210 limits assumed): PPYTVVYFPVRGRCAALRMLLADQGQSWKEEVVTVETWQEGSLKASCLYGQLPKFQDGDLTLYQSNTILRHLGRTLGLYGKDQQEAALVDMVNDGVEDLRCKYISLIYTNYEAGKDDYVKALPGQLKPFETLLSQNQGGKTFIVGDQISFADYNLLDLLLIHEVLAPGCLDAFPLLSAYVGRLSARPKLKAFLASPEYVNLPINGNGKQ
The data set is described as above. The class given is biochemical. As to the method:
as §1, §2

[2] abbreviates: 4 μmol/kg i.v. 3 times per week.

SMILES strings stand for the structures.

For the compound `CCOC(=O)N1CCN(/[N+]([O-])=N/Oc2ccc([N+](=O)[O-])cc2[N+](=O)[O-])CC1` [JS-K, O^2-(2,4-dinitrophenyl) 1-[(4-ethoxycarbonyl)piperazin-1-yl]diazen-1-ium-1,2-diolate], the “peak blood concentration the dose would achieve” value in data set [1] was “approximately 68 μM”. Further, the “prostate cancer growth in vivo” value in the data set with PPC-1 cells (setting [2]) is “significant delay in prostate cancer growth in vivo”. In addition, in the data set with PPC-1 cells (setting [2]), the “tumor histology (necrosis)” value is listed as “high degree of extensive tumor necrosis”. Further, the “subcutaneous tumor implant volume” value in the data set on PPC-1 cells (nineteen days after start of therapy, vehicle 0.368±0.082, P=0.0073) is given as 0.107±0.053 cm^3. Besides, the “apoptosis induction by DNA laddering” value with HL-60 cells is reported as “potent inducer of apoptosis in leukemia cells”. Also, the “catalysis of JS-K conjugation” value on hGSTA1-1 and on hGSTM1-1 was “much superior to hGSTP1-1” in each case. Besides, at hGSTP1-1 (hGSTP1-1), the “catalysis of NO release from JS-K with GSH” value is given as “only weakly”. Moreover, the “activity for GSH conjugation of JS-K” value on hGSTP1-1 (recombinant hGSTP1-1) was “much less active than hGSTA1-1 or hGSTM1-1”. The “effect of JS-K exposure on enzyme's ability to catalyze CDNB's conjugation with GSH” value at hGSTP1-1 (up to 80 uM JS-K) is given as “unfettered ability”.

For the origin of these results see patent US8404665B2, “In vivo use of glutathione S-transferase activated nitric oxide donors” (University of Utah Research Foundation, priority 2002, dated 2013).
